{
  "source": "patent US10428044B2",
  "about": "“3-amino-1,5,6,7-tetrahydro-4H-indol-4-ones” (Bayer Pharma Aktiengesellschaft, priority 2014, dated 2019)",
  "target": "(recombinant) catalytic domain of human Bub1 (amino acids 704-1085) (Homo sapiens (Human), UniProt O43683)",
  "sequence (O43683 704-1085)": "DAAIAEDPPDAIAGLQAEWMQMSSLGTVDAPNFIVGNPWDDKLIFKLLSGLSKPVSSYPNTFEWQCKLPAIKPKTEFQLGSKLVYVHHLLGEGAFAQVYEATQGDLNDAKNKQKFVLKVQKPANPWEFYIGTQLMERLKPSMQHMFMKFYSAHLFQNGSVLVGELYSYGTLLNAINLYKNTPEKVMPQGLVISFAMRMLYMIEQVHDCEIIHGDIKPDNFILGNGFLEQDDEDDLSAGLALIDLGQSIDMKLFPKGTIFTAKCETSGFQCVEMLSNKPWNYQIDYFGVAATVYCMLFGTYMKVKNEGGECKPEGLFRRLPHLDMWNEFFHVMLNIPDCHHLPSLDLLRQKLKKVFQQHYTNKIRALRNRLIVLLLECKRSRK",
  "assay": "Bub1 kinase assay (TR-FRET)",
  "type": "biochemical",
  "conditions": "ATP 10 μM final, peptide substrate 1 μM final, 60 min at 22° C., read-out: Biological Assay: Bub1 kinase assay median IC50",
  "outline": "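Readout was TR-FRET between a Eu-labeled antibody complex recognizing phosphoserine and streptavidin-XL665 on the biotinylated peptide, after EDTA stop and 1 h at 22° C. The kinase reaction ran for 60 min at 22° C. Values are means or medians of repeat tests, from 4-parameter fits normalized to enzyme-free and inhibitor-free controls.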",
  "note": "pIC50: −log10 of the molar value.",
  "data": [
    {"smiles": "CC1(C)CC(=O)c2c([nH]c(-c3ccnc(Cl)c3F)c2Nc2ccccc2)C1", "note": "[Example 219, 2-(2-chloro-3-fluoropyridin-4-yl)-6,6-dimethyl-3-(phenylamino)-1,5,6,7-tetrahydro-4H-indol-4-one]", "values": [
      {"measurement": "pIC50", "value": 7.91}
    ]},
    {"smiles": "COc1cc(-c2[nH]c3c(c2Nc2ccccc2)C(=O)CCC3)ccn1", "note": "[Example 150, 2-(2-methoxypyridin-4-yl)-3-(phenylamino)-1,5,6,7-tetrahydro-4H-indol-4-one]", "values": [
      {"measurement": "pIC50", "value": 5.72}
    ]},
    {"smiles": "O=C(Nc1cc(-c2[nH]c3c(c2Nc2ccccc2)C(=O)CCC3)ccn1)c1nnn[nH]1", "note": "[Example 283, N-{4-[4-oxo-3-(phenylamino)-4,5,6,7-tetrahydro-1H-indol-2-yl]pyridin-2-yl}-1H-tetrazole-5-carboxamide]", "values": [
      {"measurement": "pIC50", "value": 7.72}
    ]},
    {"smiles": "CC1(C)CC(=O)c2c([nH]c(-c3ccncc3)c2Nc2cccc(OC(F)F)c2)C1", "note": "[Example 117, 3-{[3-(difluoromethoxy)phenyl]amino}-6,6-dimethyl-2-(pyridin-4-yl)-1,5,6.7-tetrahydro-4H-indol-4-one]", "values": [
      {"measurement": "pIC50", "value": 6.76}
    ]},
    {"smiles": "CC(C)(O)C(=O)Nc1cc(-c2[nH]c3c(c2Nc2ccccc2)C(=O)CCC3)ccn1", "note": "[Example 327, 2-hydroxy-2-methyl-N-{4-[4-oxo-3-(phenylamino)-4,5,6,7-tetrahydro-1H-indol-2-yl]pyridin-2-yl}propanamide]", "values": [
      {"measurement": "pIC50", "value": 6.55}
    ]},
    {"smiles": "CC1(C)CC(=O)c2c([nH]c(-c3ccnc4[nH]ncc34)c2Nc2ccccc2)C1", "note": "[Example 34, 6,6-dimethyl-3-(phenylamino)-2-(1H-pyrazolo[3,4-b]pyridin-4-yl)-1,5,6,7-tetrahydro-4H-indol-4-one]", "values": [
      {"measurement": "pIC50", "value": 7.51}
    ]},
    {"smiles": "CC1(C)C/C(=N\\O)c2c([nH]c(-c3ccncc3)c2Nc2ccccc2)C1", "note": "[Example 194, 4-(hydroxyimino)-6,6-dimethyl-N-phenyl-2-(pyridin-4-yl)-4,5,6,7-tetrahydro-1H-indol-3-amine]", "values": [
      {"measurement": "pIC50", "value": 7.38}
    ]},
    {"smiles": "CC(C)NC(=O)Nc1cc(-c2[nH]c3c(c2Nc2ccccc2)C(=O)CCC3)ccn1", "note": "[Example 378, 1-{4-[4-oxo-3-(phenylamino)-4,5,6,7-tetrahydro-1H-indol-2-yl]pyridin-2-yl}-3-propan-2-ylurea]", "values": [
      {"measurement": "pIC50", "value": 7.19}
    ]},
    {"smiles": "COC(=O)C[n+]1ccc(-c2[nH]c3c(c2Nc2ccccc2)C(=O)CC(C)(C)C3)cc1", "note": "[Example 193, 4-[6,6-dimethyl-4-oxo-3-(phenylamino)-4,5,6,7-tetrahydro-1H-indol-2-yl]-1-(2-methoxy-2-oxoethyl)pyridinium bromide]", "values": [
      {"measurement": "pIC50", "value": 6.04}
    ]},
    {"smiles": "O=C1CCCc2[nH]c(-c3ccncc3Cl)c(Nc3ccc(F)cc3)c21", "note": "[Example 142, 2-(3-chloropyridin-4-yl)-3-[(4-fluorophenyl)amino]-1,5,6,7-tetrahydro-4H-indol-4-one]", "values": [
      {"measurement": "pIC50", "value": 7.16}
    ]},
    {"smiles": "COc1cnccc1-c1[nH]c2c(c1Nc1ccccc1)C(=O)CC(C)(C)C2", "note": "[Example 403, 2-(3-methoxypyridin-4-yl)-6,6-dimethyl-3-(phenylamino)-1,5,6,7-tetrahydro-4H-indol-4-one]", "values": [
      {"measurement": "pIC50", "value": 8.03}
    ]},
    {"smiles": "O=C1CCCc2[nH]c(-c3ccncc3Cl)c(Nc3ccccc3)c21", "note": "[Example 33, 2-(3-chloropyridin-4-yl)-3-(phenylamino)-1,5,6,7-tetrahydro-4H-indol-4-one]", "values": [
      {"measurement": "pIC50", "value": 7.75}
    ]},
    {"smiles": "CNc1cc(-c2[nH]c3c(c2Nc2ccccc2)C(=O)CCC3)ccn1", "note": "[Example 358, 2-[2-(methylamino)pyridin-4-yl]-3-(phenylamino)-1,5,6,7-tetrahydro-4H-indol-4-one]", "values": [
      {"measurement": "pIC50", "value": 5.95}
    ]},
    {"smiles": "CC1(C)CC(=O)c2c([nH]c(-c3ccnc(NC(=O)c4ccc(F)cc4)c3)c2Nc2ccccc2)C1", "note": "[Example 267, N-{4-[6,6-dimethyl-4-oxo-3-(phenylamino)-4,5,6,7-tetrahydro-1H-indol-2-yl]pyridin-2-yl}-4-fluorobenzamide]", "values": [
      {"measurement": "pIC50", "value": 8.02}
    ]},
    {"smiles": "O=C1CCCc2[nH]c(-c3c(F)cncc3F)c(Nc3cccc(F)c3)c21", "note": "[Example 136, 2-(3,5-difluoropyridin-4-yl)-3-[(3-fluorophenyl)amino]-1,5,6,7-tetrahydro-4H-indol-4-one]", "values": [
      {"measurement": "pIC50", "value": 6.03}
    ]},
    {"smiles": "O=C1CC2(CC2)Cc2[nH]c(-c3ccncc3)c(Nc3ccccc3)c21", "note": "[Example 37, 3′-(phenylamino)-2′-(pyridin-4-yl)-1′,7′-dihydrospiro[cyclopropane-1,6′-indol]-4′(5′H)-one]", "values": [
      {"measurement": "pIC50", "value": 8.07}
    ]},
    {"smiles": "CC1(C)CC(=O)c2c([nH]c(-c3ccnc(N)c3)c2Nc2cccc(Br)c2)C1", "note": "[Example 203, 2-(2-aminopyridin-4-yl)-3-[(3-bromophenyl)amino]-6,6-dimethyl-1,5,6,7-tetrahydro-4H-indol-4-one]", "values": [
      {"measurement": "pIC50", "value": 6.94}
    ]},
    {"smiles": "CC1(C)CC(=O)c2c([nH]c(-c3ccnc(NCC4CC4)c3)c2Nc2ccccc2)C1", "note": "[Example 509, 2-{2-[(cyclopropylmethyl)amino]pyridin-4-yl}-6,6-dimethyl-3-(phenylamino)-1,5,6,7-tetrahydro-4H-indol-4-one]", "values": [
      {"measurement": "pIC50", "value": 6.66}
    ]},
    {"smiles": "O=C1CCCc2[nH]c(-c3ccncc3)c(Nc3ccccc3)c21", "note": "[Example 9, 3-(phenylamino)-2-(pyridin-4-yl)-1,5,6,7-tetrahydro-4H-indol-4-one]", "values": [
      {"measurement": "pIC50", "value": 7.92}
    ]},
    {"smiles": "CC1(C)CC(=O)c2c([nH]c(-c3ccncc3)c2Nc2cccc(Oc3ccccc3)c2)C1", "note": "[Example 421, 6,6-dimethyl-3-[(3-phenoxyphenyl)amino]-2-(pyridin-4-yl)-1,5,6,7-tetrahydro-4H-indol-4-one]", "values": [
      {"measurement": "pIC50", "value": 6.70}
    ]},
    {"smiles": "O=C(COc1ccsc1)Nc1cc(-c2[nH]c3c(c2Nc2ccccc2)C(=O)CCC3)ccn1", "note": "[Example 344, N-{4-[4-oxo-3-(phenylamino)-4,5,6,7-tetrahydro-1H-indol-2-yl]pyridin-2-yl}-2-(thiophen-3-yloxy)acetamide]", "values": [
      {"measurement": "pIC50", "value": 7.70}
    ]},
    {"smiles": "CC(C)C1CC(=O)c2c([nH]c(-c3ccnc(N)c3)c2Nc2ccc(F)c(F)c2)C1", "note": "(stereo not drawn) [Example 222, 2-(2-aminopyridin-4-yl)-3-[(3,4-difluorophenyl)amino]-6-(propan-2-yl)-1,5,6,7-tetrahydro-4H-indol-4-one]", "values": [
      {"measurement": "pIC50", "value": 7.55}
    ]},
    {"smiles": "CC1(C)CC(=O)c2c([nH]c(-c3ccnc(NC(=O)c4ccn[nH]4)c3)c2Nc2ccccc2)C1", "note": "[Example 465, N-{4-[6,6-dimethyl-4-oxo-3-(phenylamino)-4,5,6,7-tetrahydro-1H-indol-2-yl]pyridin-2-yl}-1H-pyrazole-3-carboxamide]", "values": [
      {"measurement": "pIC50", "value": 8.14}
    ]},
    {"smiles": "Cn1nnnc1Nc1cc(-c2[nH]c3c(c2Nc2ccccc2)C(=O)CCC3)ccn1", "note": "[Example 374, 2-{2-[(1-methyl-1H-tetrazol-5-yl)amino]pyridin-4-yl}-3-(phenylamino)-1,5,6,7-tetrahydro-4H-indol-4-one]", "values": [
      {"measurement": "pIC50", "value": 7.73}
    ]},
    {"smiles": "Cn1cc(C(=O)Nc2cc(-c3[nH]c4c(c3Nc3ccccc3)C(=O)CCC4)ccn2)cn1", "note": "[Example 447, 1-methyl-N-{4-[4-oxo-3-(phenylamino)-4,5,6,7-tetrahydro-1H-indol-2-yl]pyridin-2-yl}-1H-pyrazole-4-carboxamide]", "values": [
      {"measurement": "pIC50", "value": 7.95}
    ]},
    {"smiles": "CC1(C)CC(=O)c2c([nH]c(-c3ccncc3)c2Nc2cccc(-c3ccsc3)c2)C1", "note": "[Example 418, 6,6-dimethyl-2-(pyridin-4-yl)-3-{[3-(thiophen-3-yl)phenyl]amino}-1,5,6,7-tetrahydro-4H-indol-4-one]", "values": [
      {"measurement": "pIC50", "value": 7.58}
    ]},
    {"smiles": "CS(=O)(=O)CC(=O)Nc1cc(-c2[nH]c3c(c2Nc2ccccc2)C(=O)CCC3)ccn1", "note": "[Example 248, 2-(methylsulfonyl)-N-{4-[4-oxo-3-(phenylamino)-4,5,6,7-tetrahydro-1H-indol-2-yl]pyridin-2-yl}acetamide]", "values": [
      {"measurement": "pIC50", "value": 7.55}
    ]},
    {"smiles": "CC1(C)CC(=O)c2c([nH]c(-c3ccncc3)c2Nc2cccc(C(O)C(F)(F)F)c2)C1", "note": "(stereo not drawn) [Example 155, 6,6-dimethyl-2-(pyridin-4-yl)-3-{[3-(2,2,2-trifluoro-1-hydroxyethyl)phenyl]amino}-1,5,6,7-tetrahydro-4H-indol-4-one]", "values": [
      {"measurement": "pIC50", "value": 5.77}
    ]},
    {"smiles": "CC(C)(CF)C(=O)Nc1cc(-c2[nH]c3c(c2Nc2ccccc2)C(=O)CCC3)ccn1", "note": "[Example 263, 3-fluoro-2,2-dimethyl-N-{4-[4-oxo-3-(phenylamino)-4,5,6,7-tetrahydro-1H-indol-2-yl]pyridin-2-yl}propanamide]", "values": [
      {"measurement": "pIC50", "value": 6.85}
    ]},
    {"smiles": "CC1(C)CC(=O)c2c([nH]c(-c3ccncc3)c2Nc2cc(F)c(F)c(F)c2)C1", "note": "[Example 32, 6,6-dimethyl-2-(pyridin-4-yl)-3-[(3,4,5-trifluorophenyl)amino]-1,5,6,7-tetrahydro-4H-indol-4-one]", "values": [
      {"measurement": "pIC50", "value": 7.80}
    ]},
    {"smiles": "CCC(=O)Nc1cc(-c2[nH]c3c(c2Nc2ccccc2)C(=O)CC(C)(C)C3)ccn1", "note": "[Example 35, N-{4-[6,6-dimethyl-4-oxo-3-(phenylamino)-4,5,6,7-tetrahydro-1H-indol-2-yl]pyridin-2-yl}propanamide]", "values": [
      {"measurement": "pIC50", "value": 7.76}
    ]},
    {"smiles": "CC(C)[n+]1ccc(-c2[nH]c3c(c2Nc2ccccc2)C(=O)CC(C)(C)C3)cc1", "note": "[Example 189, 4-[6,6-dimethyl-4-oxo-3-(phenylamino)-4,5,6,7-tetrahydro-1H-indol-2-yl]-1-(propan-2-yl)pyridinium iodide]", "values": [
      {"measurement": "pIC50", "value": 6.59}
    ]},
    {"smiles": "CC(Nc1cc(-c2[nH]c3c(c2Nc2ccccc2)C(=O)CC(C)(C)C3)ccn1)C(F)F", "note": "(stereo not drawn) [Example 363, 2-(2-{[1,1-difluoropropan-2-yl]amino}pyridin-4-yl)-6,6-dimethyl-3-(phenylamino)-1,5,6,7-tetrahydro-4H-indol-4-one]", "values": [
      {"measurement": "pIC50", "value": 6.68}
    ]},
    {"smiles": "CN1CCCC1C(=O)Nc1cc(-c2[nH]c3c(c2Nc2ccccc2)C(=O)CCC3)ccn1", "note": "(stereo not drawn) [Example 309, 1-methyl-N-{4-[4-oxo-3-(phenylamino)-4,5,6,7-tetrahydro-1H-indol-2-yl]pyridin-2-yl}-prolinamide]", "values": [
      {"measurement": "pIC50", "value": 6.62}
    ]},
    {"smiles": "CCCCOCC(=O)Nc1cc(-c2[nH]c3c(c2Nc2ccccc2)C(=O)CCC3)ccn1", "note": "[Example 333, 2-butoxy-N-{4-[4-oxo-3-(phenylamino)-4,5,6,7-tetrahydro-1H-indol-2-yl]pyridin-2-yl}acetamide]", "values": [
      {"measurement": "pIC50", "value": 8.13}
    ]},
    {"smiles": "CC1(C)CC(=O)c2c([nH]c(-c3c(F)cncc3F)c2Nc2ccccc2)C1", "note": "[Example 135, 2-(3,5-difluoropyridin-4-yl)-6,6-dimethyl-3-(phenylamino)-1,5,6,7-tetrahydro-4H-indol-4-one]", "values": [
      {"measurement": "pIC50", "value": 6.73}
    ]}
  ]
}
